Measured values as given in patent US7329681B2, “Inhibitors of IMPDH enzyme” (Vertex Pharmaceuticals Incorporated, priority 1996, dated 2008).
Like-named read-outs stand apart in the source and are kept apart here.

Target: IMPDH human type II (Homo sapiens, UniProt P12268)
Assay: IMPDH activity inhibition assay (spectrophotometric, NADH formation at 340 nm)
Type: biochemical
Experimental: We have measured the inhibition constants of each compound against IMPDH using an adaptation of the method first reported by […]. Moyed, and […]. Biol. Chem., 226, p. 339 (1957)]. We measured the inhibition constants of the compounds listed in Table III utilizing the following protocol: IMP dehydrogenase activity was assayed following an adaptation of the method first reported by […]. Moyed, H. S. and […]. Biol. Chem. 226, 339]. Enzyme activity was measured spectrophotometrically, by monitoring the increase in absorbance at 340 nm due to the formation of NADH (ε340 is 6220 M^-1 cm^-1). The reaction mixture contained 0.1 M Tris pH 8.0, 0.1 M KCl, 3 mM EDTA, 2 mM DTT, […] and enzyme (IMPDH human type II) at a concentration of 15 to 50 nM. This solution is incubated at 37° C. for 10 minutes. The reaction is started by adding NAD to a final concentration of 0.1 M and the initial rate is measured by following the linear increase in absorbance at 340 nm for 10 minutes. For reading in a standard spectrophotometer (path length 1 cm) the final volume in the cuvette is 1.0 ml. The assay has also been adapted to a 96 well microtiter plate format; in this case the concentrations of all the reagents remain the same and the final volume is decreased to 200 μl. For the analysis of inhibitors, the compound in question is dissolved in DMSO to a final concentration of 20 mM and added to the initial assay mixture for preincubation with the enzyme at a final volume of 2-5% (v/v). The reaction is started by the addition of NAD, and the initial rates measured as above. […] The designation “ND” is used where a given compound was not tested.

[1] = IMPDH human type II, 15 to 50 nM enzyme, 37° C., tight-binding fit (Henderson), read-out: Ki

Row | SMILES | Ki [1] | Ki
1 | CNc1cccc(NC(=O)Nc2ccc(-c3cnco3)c(Cl)c2)c1 [Compound 94] | 51 to 1000 nM | –
2 | COc1cc(NC(=O)Nc2cccc(NC(=O)C(F)F)c2)ccc1-c1cnco1 [Compound 100] | 51 to 1000 nM | –
3 | CC(=O)OCc1cc(NC(=O)Nc2cccc(C)c2)ccc1-c1cnco1 [Compound 101] | 1000 to 10000 nM | –
4 | CC(C)(C)OC(=O)NCc1cccc(NC(=O)Nc2cccc(CNC(=O)OC(C)(C)C)c2)c1 [Compound 103] | 1000 to 10000 nM | –
5 | COc1cc(NC(=O)Nc2ccc3c(c2)N(C(C)=O)CC3)ccc1-c1cnco1 [Compound 106] | 51 to 1000 nM | –
6 | COc1cc(NC(=O)Nc2cccc(N(C)C(C)=O)c2)ccc1-c1cnco1 [Compound 107] | 0.01 to 50 nM | –
7 | COc1cc(NC(=O)Nc2cccc(NC(=O)c3ccccc3)c2)ccc1-c1cnco1 [Compound 110] | 51 to 1000 nM | –
8 | COc1cc(NC(=O)Nc2cccc(NC(=O)Cc3ccccc3)c2)ccc1-c1cnco1 [Compound 111] | 0.01 to 50 nM | –
9 | COc1cc(NC(=O)Nc2cccc(NC(=O)Nc3ccccc3)c2)ccc1-c1cnco1 [Compound 112] | 51 to 1000 nM | –
10 | COc1cc(NC(=O)Nc2cccc(CNC(=O)OC(C)(C)C)c2)ccc1-c1cnco1 [Compound 113] | 0.01 to 50 nM | –
11 | COc1cc(NC(=O)Nc2cccc(NC(=O)CC3CCCC3)c2)ccc1-c1cnco1 [Compound 114] | 51 to 1000 nM | –
12 | COc1cc(NC(=S)Nc2cccc(C)c2)ccc1-c1cnco1 [Compound 115] | 51 to 1000 nM | –
13 | COc1cc(NC(=O)Nc2cccc(CN(C)C(=O)OC(C)(C)C)c2)ccc1-c1cnco1 [Compound 117] | 51 to 1000 nM | –
14 | COC(=O)NCc1cccc(NC(=O)Nc2ccc(-c3cnco3)c(OC)c2)c1 [Compound 118] | – | 1000 to 10000 nM
15 | COc1cc(NC(=O)Nc2cccc(CNC(=O)Oc3ccccc3)c2)ccc1-c1cnco1 [Compound 119] | – | 0.01 to 50 nM
16 | COC(=O)c1ccc(OC(=O)NCc2cccc(NC(=O)Nc3ccc(-c4cnco4)c(OC)c3)c2)cc1 [Compound 123] | – | 0.01 to 50 nM
17 | C=CCOC(=O)NCc1cccc(NC(=O)Nc2ccc(-c3cnco3)c(OC)c2)c1 [Compound 125] | – | 0.01 to 50 nM
18 | COc1cc(NC(=O)Nc2cccc(CNC(=O)Oc3ccc(NC(C)=O)cc3)c2)ccc1-c1cnco1 [Compound 127] | – | 0.01 to 50 nM

Row | SMILES | Ki [1] | Ki
19 | COc1cc(NC(=O)Nc2cccc(CNC(=O)OCc3cccs3)c2)ccc1-c1cnco1 [Compound 129] | 0.01 to 50 nM | –
20 | COc1cc(NC(=O)Nc2cccc(CNC(=O)OC3CCOCC3)c2)ccc1-c1cnco1 [Compound 131] | 0.01 to 50 nM | –
21 | COc1cc(NC(=O)Nc2cccc(CNC(=O)OCCO)c2)ccc1-c1cnco1 [Compound 134] | – | 0.01 to 50 nM
22 | COc1cc(NC(=O)Nc2cccc(CNC(=O)OCC3CCCCC3)c2)ccc1-c1cnco1 [Compound 135] | 0.01 to 50 nM | –
23 | COc1cc(NC(=O)Nc2cccc(CNC(=O)Oc3cccnc3)c2)ccc1-c1cnco1 [Compound 137] | – | 51 to 1000 nM
24 | COc1cc(NC(=O)Nc2cccc(CNC(=O)OCc3ccccc3)c2)ccc1-c1cnco1 [Compound 138] | 0.01 to 50 nM | –
25 | COc1cc(NC(=O)Nc2cccc(CNC(=O)OC3CCCN(C(=O)OC(C)(C)C)C3)c2)ccc1-c1cnco1 (centres unmarked) [Compound 143] | 51 to 1000 nM | –
26 | COc1cc(NC(=O)Nc2cccc(CNC(=O)OCCCSC)c2)ccc1-c1cnco1 [Compound 145] | 0.01 to 50 nM | –
27 | COc1cc(NC(=O)Nc2cccc(CNC(=O)OCC3CCOC(C)(C)O3)c2)ccc1-c1cnco1 (centres unmarked) [Compound 146] | 0.01 to 50 nM | –
28 | COc1cc(NC(=O)Nc2cccc(CNC(=O)OCC3CCN(C(=O)OC(C)(C)C)CC3)c2)ccc1-c1cnco1 [Compound 148] | 0.01 to 50 nM | –
29 | COc1cc(NC(=O)Nc2cccc(CNC(=O)OC(CO)CO)c2)ccc1-c1cnco1 [Compound 151] | 51 to 1000 nM | –
30 | COc1cc(NC(=O)Nc2cccc(CNC(=O)OCC3CCNCC3)c2)ccc1-c1cnco1 [Compound 155] | 0.01 to 50 nM | –
31 | COc1cc(NC(=O)Nc2cccc(CNC(=O)OCCCS(C)(=O)=O)c2)ccc1-c1cnco1 [Compound 157] | 51 to 1000 nM | –
32 | COc1cc(NC(=O)Nc2cccc(CNC(=O)OCC3CCCNC3)c2)ccc1-c1cnco1 (centres unmarked) [Compound 158] | 51 to 1000 nM | –
33 | COCCCOC(=O)NCc1cccc(NC(=O)Nc2ccc(-c3cnco3)c(OC)c2)c1 [Compound 162] | 0.01 to 50 nM | –
34 | CSc1cc(NC(=O)Nc2cccc(CNC(=O)O[C@H]3CCOC3)c2)ccc1C#N [Compound 165] | 0.01 to 50 nM | –
35 | CSc1cc(NC(=O)Nc2cccc(CNC(=O)O[C@H]3CCOC3)c2)ccc1C#N [Compound 168] | 51 to 1000 nM | –

Further lines, with some results ahead:

Row | Ki [1] | SMILES | Ki
36 | 51 to 1000 nM | COc1cc(NC(=O)Nc2cccc(NC(=O)C(F)(F)F)c2)ccc1-c1cnco1 [Compound 96] | –
37 | 0.01 to 50 nM | COc1cc(NC(=O)Nc2cccc(N(C)C(=O)C(F)(F)F)c2)ccc1-c1cnco1 [Compound 97] | –
38 | 51 to 1000 nM | COc1cc(NC(=O)Nc2cccc(NC(=O)OCc3cccnc3)c2)ccc1-c1cnco1 [Compound 98] | –
39 | 0.01 to 50 nM | COc1cc(NC(=O)Nc2cccc(NC(=O)Oc3ccccc3)c2)ccc1-c1cnco1 [Compound 99] | –
40 | 1000 to 10000 nM | Cc1cccc(NC(=O)Nc2ccc(-c3cnco3)c(CO)c2)c1 [Compound 102] | –
41 | 1000 to 10000 nM | O=C(Nc1ccc(-c2cnco2)cc1)Nc1ccc(F)c([N+](=O)[O-])c1 [Compound 104] | –
42 | 51 to 1000 nM | COc1cc(NC(=O)Nc2cccc(CN)c2)ccc1-c1cnco1 [Compound 105] | –
43 | 51 to 1000 nM | COc1cc(NC(=O)Nc2cccc(NC(=O)C(=O)c3cc(OC)c(OC)c(OC)c3)c2)ccc1-c1cnco1 [Compound 108] | –
44 | 51 to 1000 nM | Cc1cccc(NC(=O)Nc2ccc(-c3cnco3)c(N)c2)c1 [Compound 109] | –
45 | 0.01 to 50 nM | COc1cc(NC(=O)Nc2cccc(CNC(=O)O[C@H]3CCOC3)c2)ccc1-c1cnco1 [Compound 120] | –
46 | 0.01 to 50 nM | COc1cc(NC(=O)Nc2cccc(CNC(=O)OCc3ccccn3)c2)ccc1-c1cnco1 [Compound 121] | –
47 | 0.01 to 50 nM | COc1cc(NC(=O)Nc2cccc(CNC(=O)OC[C@@H]3CNC(=O)O3)c2)ccc1-c1cnco1 [Compound 122] | –
48 | 0.01 to 50 nM | COc1cc(NC(=O)Nc2cccc(CNC(=O)OCC(C)C)c2)ccc1-c1cnco1 [Compound 124] | –
49 | 0.01 to 50 nM | COc1cc(NC(=O)Nc2cccc(CNC(=O)OC3COCOC3)c2)ccc1-c1cnco1 [Compound 126] | –
50 | 0.01 to 50 nM | COc1cc(NC(=O)Nc2cccc(CNC(=O)OCc3ccco3)c2)ccc1-c1cnco1 [Compound 128] | –
51 | 0.01 to 50 nM | COCCOC(=O)NCc1cccc(NC(=O)Nc2ccc(-c3cnco3)c(OC)c2)c1 [Compound 130] | –
52 | 0.01 to 50 nM | COc1cc(NC(=O)Nc2cccc(CNC(=O)OC3CCCCC3)c2)ccc1-c1cnco1 [Compound 132] | –

Row | Ki [1] | SMILES | Ki
53 | 0.01 to 50 nM | COc1cc(NC(=O)Nc2cccc(CNC(=O)OC3CCCC3)c2)ccc1-c1cnco1 [Compound 133] | –
54 | 0.01 to 50 nM | COc1cc(NC(=O)Nc2cccc(CNC(=O)OC3CCOC3)c2)ccc1-c1cnco1 (centres unmarked) [Compound 136] | –
55 | 51 to 1000 nM | COc1cc(NC(=O)Nc2cccc(CNC(=O)OCCCNC(=O)OC(C)(C)C)c2)ccc1-c1cnco1 [Compound 139] | –
56 | 0.01 to 50 nM | COc1cc(NC(=O)Nc2cccc(CNC(=O)OCCCCO)c2)ccc1-c1cnco1 [Compound 140] | –
57 | 0.01 to 50 nM | COc1cc(NC(=O)Nc2cccc(CNC(=O)OCCCCCO)c2)ccc1-c1cnco1 [Compound 141] | –
58 | 51 to 1000 nM | COc1cc(NC(=O)Nc2cccc(CNC(=O)OC3C(=O)OCC3(C)C)c2)ccc1-c1cnco1 (centres unmarked) [Compound 144] | –
59 | 0.01 to 50 nM | COc1cc(NC(=O)Nc2cccc(CNC(=O)OCC3CCCN(C(=O)OC(C)(C)C)C3)c2)ccc1-c1cnco1 (centres unmarked) [Compound 149] | –
60 | 51 to 1000 nM | COc1cc(NC(=O)Nc2cccc(CNC(=O)OCC3CCCCN3C(=O)OC(C)(C)C)c2)ccc1-c1cnco1 (centres unmarked) [Compound 152] | –
61 | 0.01 to 50 nM | COc1cc(NC(=O)Nc2cccc(CNC(=O)OC3CCCNC3)c2)ccc1-c1cnco1 (centres unmarked) [Compound 153] | –
62 | 0.01 to 50 nM | COc1cc(NC(=O)Nc2cccc(CNC(=O)OCC3CCCCO3)c2)ccc1-c1cnco1 (centres unmarked) [Compound 154] | –
63 | 0.01 to 50 nM | COc1cc(NC(=O)Nc2cccc(CNC(=O)OCC3CCCCN3)c2)ccc1-c1cnco1 (centres unmarked) [Compound 159] | –
64 | 0.01 to 50 nM | COc1cc(NC(=O)Nc2cccc(CNC(=O)OC3CCSC3)c2)ccc1-c1cnco1 (centres unmarked) [Compound 160] | –
65 | 0.01 to 50 nM | COc1cc(NC(=O)Nc2cccc(CNC(=O)OC3CCCSC3)c2)ccc1-c1cnco1 (centres unmarked) [Compound 161] | –
66 | 51 to 1000 nM | CC(=O)N(C)c1cccc(NC(=O)Nc2ccc(C#N)c(Cl)c2)c1 [Compound 163] | –
67 | 51 to 1000 nM | COc1cc(NC(=O)Nc2cccc(N(C)C(C)=O)c2)ccc1C#N [Compound 164] | –
68 | > 10000 nM | CC(=O)N(C)c1cccc(NC(=O)Nc2ccc(C#N)c(S(C)(=O)=O)c2)c1 [Compound 166] | –
